Numbers after ± are expanded uncertainties.
Test: mn = molality of the nth substance listed, in mol/kg
Conditions: 101 kPa, Liquid; for mass density: Vibrating tube method; for speed of sound: Sing-around technique in a fixed-path interferometer

O [water] + NCC(=O)O
Conditions | mass density [kg/m3]
283.15 K, m2 = 0 | 999.699 ± 0.11

N[C@@H](CO)C(=O)O [L-serine] + O
Conditions | mass density [kg/m3] | speed of sound [m/s]
288.15 K, m1 = 0.0192 | 999.979 ± 0.12 | 1467.9 ± 1.3
288.15 K, m1 = 0.028 | 1000.38 ± 0.12 | 1468.5 ± 1.3
288.15 K, m1 = 0.037 | 1000.78 ± 0.12 | 1468.9 ± 1.3
288.15 K, m1 = 0.043 | 1001.05 ± 0.12 | 1469.4 ± 1.3
288.15 K, m1 = 0.0486 | 1001.3 ± 0.12 | 1469.8 ± 1.3
288.15 K, m1 = 0.057 | 1001.68 ± 0.12 | 1470.3 ± 1.3
288.15 K, m1 = 0.0657 | 1002.07 ± 0.12 | 1470.9 ± 1.3
288.15 K, m1 = 0.0804 | 1002.73 ± 0.12 | 1471.8 ± 1.3
288.15 K, m1 = 0.0942 | 1003.34 ± 0.12 | 1472.7 ± 1.3
288.15 K, m1 = 0.1156 | 1004.3 ± 0.12 | 1474.1 ± 1.3
288.15 K, m1 = 0.1329 | 1005.07 ± 0.12 | 1475.2 ± 1.3
288.15 K, m1 = 0.1535 | 1005.99 ± 0.12 | 1476.6 ± 1.3
288.15 K, m1 = 0.1642 | 1006.46 ± 0.12 | 1477.3 ± 1.3
288.15 K, m1 = 0.1789 | 1007.11 ± 0.12 | 1478.3 ± 1.3
288.15 K, m1 = 0.1944 | 1007.8 ± 0.12 | 1479.2 ± 1.3
293.15 K, m1 = 0.0192 | 999.07 ± 0.12 | 1484 ± 1.3
293.15 K, m1 = 0.028 | 999.466 ± 0.12 | 1484.5 ± 1.3
293.15 K, m1 = 0.037 | 999.867 ± 0.12 | 1485 ± 1.3
293.15 K, m1 = 0.043 | 1000.13 ± 0.12 | 1485.4 ± 1.3
293.15 K, m1 = 0.0486 | 1000.38 ± 0.12 | 1485.8 ± 1.3
293.15 K, m1 = 0.057 | 1000.75 ± 0.12 | 1486.3 ± 1.3
293.15 K, m1 = 0.0657 | 1001.14 ± 0.12 | 1486.8 ± 1.3
293.15 K, m1 = 0.0804 | 1001.79 ± 0.12 | 1487.8 ± 1.3
293.15 K, m1 = 0.0942 | 1002.4 ± 0.12 | 1488.7 ± 1.3
293.15 K, m1 = 0.1156 | 1003.35 ± 0.12 | 1490 ± 1.3
293.15 K, m1 = 0.1329 | 1004.11 ± 0.12 | 1491.1 ± 1.3
293.15 K, m1 = 0.1535 | 1005.02 ± 0.12 | 1492.4 ± 1.3
293.15 K, m1 = 0.1642 | 1005.49 ± 0.12 | 1493.1 ± 1.3
293.15 K, m1 = 0.1789 | 1006.13 ± 0.12 | 1494 ± 1.3
293.15 K, m1 = 0.1944 | 1006.81 ± 0.11 | 1495 ± 1.3
298.15 K, m1 = 0.0192 | 997.9 ± 0.12 | 1498.2 ± 1.2
298.15 K, m1 = 0.028 | 998.291 ± 0.12 | 1498.8 ± 1.2
298.15 K, m1 = 0.037 | 998.691 ± 0.12 | 1499.2 ± 1.2
298.15 K, m1 = 0.043 | 998.951 ± 0.12 | 1499.6 ± 1.2
298.15 K, m1 = 0.0486 | 999.198 ± 0.12 | 1500 ± 1.2
298.15 K, m1 = 0.057 | 999.564 ± 0.12 | 1500.5 ± 1.2
298.15 K, m1 = 0.0657 | 999.952 ± 0.12 | 1501 ± 1.2
298.15 K, m1 = 0.0804 | 1000.6 ± 0.12 | 1501.9 ± 1.2
298.15 K, m1 = 0.0942 | 1001.2 ± 0.12 | 1502.7 ± 1.2
298.15 K, m1 = 0.1156 | 1002.14 ± 0.12 | 1504 ± 1.2
298.15 K, m1 = 0.1329 | 1002.89 ± 0.12 | 1505.1 ± 1.2
298.15 K, m1 = 0.1535 | 1003.79 ± 0.12 | 1506.4 ± 1.2
298.15 K, m1 = 0.1642 | 1004.26 ± 0.12 | 1507 ± 1.2
298.15 K, m1 = 0.1789 | 1004.89 ± 0.12 | 1507.9 ± 1.2
298.15 K, m1 = 0.1944 | 1005.57 ± 0.12 | 1508.8 ± 1.2
303.15 K, m1 = 0.0192 | 996.495 ± 0.12 | 1510.5 ± 1.2
303.15 K, m1 = 0.028 | 996.883 ± 0.12 | 1511.1 ± 1.2
303.15 K, m1 = 0.037 | 997.277 ± 0.12 | 1511.5 ± 1.2
303.15 K, m1 = 0.043 | 997.539 ± 0.12 | 1511.9 ± 1.2
303.15 K, m1 = 0.0486 | 997.781 ± 0.12 | 1512.3 ± 1.2
303.15 K, m1 = 0.057 | 998.143 ± 0.12 | 1512.8 ± 1.2
303.15 K, m1 = 0.0657 | 998.53 ± 0.12 | 1513.2 ± 1.2
303.15 K, m1 = 0.0804 | 999.17 ± 0.12 | 1514.1 ± 1.2
303.15 K, m1 = 0.0942 | 999.763 ± 0.12 | 1514.9 ± 1.2
303.15 K, m1 = 0.1156 | 1000.7 ± 0.12 | 1516.2 ± 1.2
303.15 K, m1 = 0.1329 | 1001.45 ± 0.12 | 1517.2 ± 1.2
303.15 K, m1 = 0.1535 | 1002.34 ± 0.12 | 1518.5 ± 1.2
303.15 K, m1 = 0.1642 | 1002.8 ± 0.12 | 1519.1 ± 1.2
303.15 K, m1 = 0.1789 | 1003.43 ± 0.12 | 1520 ± 1.2
303.15 K, m1 = 0.1944 | 1004.1 ± 0.12 | 1520.8 ± 1.2
308.15 K, m1 = 0.0192 | 994.871 ± 0.12 | 1521.2 ± 1.2
308.15 K, m1 = 0.028 | 995.258 ± 0.12 | 1521.7 ± 1.2
308.15 K, m1 = 0.037 | 995.648 ± 0.12 | 1522.1 ± 1.2
308.15 K, m1 = 0.043 | 995.908 ± 0.12 | 1522.5 ± 1.2
308.15 K, m1 = 0.0486 | 996.152 ± 0.12 | 1522.9 ± 1.2
308.15 K, m1 = 0.057 | 996.512 ± 0.12 | 1523.4 ± 1.2
308.15 K, m1 = 0.0657 | 996.896 ± 0.12 | 1523.8 ± 1.2
308.15 K, m1 = 0.0804 | 997.529 ± 0.12 | 1524.7 ± 1.2
308.15 K, m1 = 0.0942 | 998.119 ± 0.12 | 1525.5 ± 1.2
308.15 K, m1 = 0.1156 | 999.047 ± 0.12 | 1526.7 ± 1.2
308.15 K, m1 = 0.1329 | 999.793 ± 0.12 | 1527.7 ± 1.2
308.15 K, m1 = 0.1535 | 1000.68 ± 0.12 | 1528.9 ± 1.2
308.15 K, m1 = 0.1642 | 1001.14 ± 0.12 | 1529.5 ± 1.2
308.15 K, m1 = 0.1789 | 1001.76 ± 0.12 | 1530.3 ± 1.2
308.15 K, m1 = 0.1944 | 1002.43 ± 0.12 | 1531.2 ± 1.2
313.15 K, m1 = 0.0192 | 993.05 ± 0.12 | 1530.3 ± 1.2
313.15 K, m1 = 0.028 | 993.434 ± 0.12 | 1530.8 ± 1.2
313.15 K, m1 = 0.037 | 993.821 ± 0.12 | 1531.2 ± 1.2
313.15 K, m1 = 0.043 | 994.079 ± 0.12 | 1531.6 ± 1.2
313.15 K, m1 = 0.0486 | 994.322 ± 0.12 | 1532 ± 1.2
313.15 K, m1 = 0.057 | 994.68 ± 0.12 | 1532.4 ± 1.2
313.15 K, m1 = 0.0657 | 995.061 ± 0.12 | 1532.8 ± 1.2
313.15 K, m1 = 0.0804 | 995.691 ± 0.12 | 1533.7 ± 1.2
313.15 K, m1 = 0.0942 | 996.279 ± 0.12 | 1534.4 ± 1.2
313.15 K, m1 = 0.1156 | 997.203 ± 0.12 | 1535.7 ± 1.2
313.15 K, m1 = 0.1329 | 997.943 ± 0.12 | 1536.6 ± 1.2
313.15 K, m1 = 0.1535 | 998.827 ± 0.12 | 1537.8 ± 1.2
313.15 K, m1 = 0.1642 | 999.283 ± 0.12 | 1538.4 ± 1.2
313.15 K, m1 = 0.1789 | 999.905 ± 0.12 | 1539.2 ± 1.2
313.15 K, m1 = 0.1944 | 1000.57 ± 0.12 | 1540 ± 1.2

O [water] + N.N.O=C(O)CC(O)(CC(=O)O)C(=O)O
Conditions | mass density [kg/m3]
283.15 K, m2 = 0 | 999.699 ± 0.15

O [water] + N[C@@H](CO)C(=O)O
Conditions | mass density [kg/m3]
283.15 K, m2 = 0 | 999.699 ± 0.12

From the NIST ThermoML archive (doi:10.1016/j.jct.2010.08.021)
